Where only a bound is given, the exact number is not on record here.

Drawing on patent US20100048950A1 (BOEHRINGER INGELHEIM INTERNATIONAL GMBH, priority 2007, published 2010), this text covers IC50 for 30 compounds.

The assay deals with T1, human glucocorticoid receptor (GR) complex (Homo sapiens, UniProt P04150).
T1 construct: made in house; host or cells: insect expression system (baculovirus lysate)
T1 sequence (P04150 1-777): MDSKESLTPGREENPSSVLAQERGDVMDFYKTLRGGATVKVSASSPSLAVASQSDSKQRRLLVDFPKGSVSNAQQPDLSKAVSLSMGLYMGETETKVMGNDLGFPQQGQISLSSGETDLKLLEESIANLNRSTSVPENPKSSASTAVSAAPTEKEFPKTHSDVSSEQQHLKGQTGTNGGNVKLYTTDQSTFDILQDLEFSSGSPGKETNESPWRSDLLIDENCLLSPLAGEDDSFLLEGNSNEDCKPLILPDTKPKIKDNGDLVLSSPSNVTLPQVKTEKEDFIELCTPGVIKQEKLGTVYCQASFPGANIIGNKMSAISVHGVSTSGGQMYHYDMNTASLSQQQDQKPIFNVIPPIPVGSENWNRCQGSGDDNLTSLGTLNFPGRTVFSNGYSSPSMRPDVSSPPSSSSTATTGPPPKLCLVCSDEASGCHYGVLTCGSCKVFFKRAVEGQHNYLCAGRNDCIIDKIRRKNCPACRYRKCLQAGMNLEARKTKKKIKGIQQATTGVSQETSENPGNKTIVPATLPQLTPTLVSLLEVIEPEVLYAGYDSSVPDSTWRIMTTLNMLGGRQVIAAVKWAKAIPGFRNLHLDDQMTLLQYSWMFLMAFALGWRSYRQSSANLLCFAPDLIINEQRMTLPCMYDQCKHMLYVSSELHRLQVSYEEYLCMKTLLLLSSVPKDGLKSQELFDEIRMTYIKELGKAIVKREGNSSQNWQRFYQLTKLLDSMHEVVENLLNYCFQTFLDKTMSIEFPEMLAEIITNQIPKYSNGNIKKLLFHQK
The assay can be described thus: Glucocorticoid receptor competitive binding assay (fluorescence polarization). The conditions noted are these: competition with TAMRA-labeled dexamethasone, read-out: potent activity (IC50) in the GR binding assay. The method, then: Compounds of the invention were evaluated for binding to the steroid receptor by a fluorescence polarization competitive binding assay. Detailed descriptions for preparation of recombinant glucocorticoid receptor (GR) complex used in the assay is described in U.S. Patent Application Publication No. US 2003/0017503, filed May 20, 2002, and incorporated herein by reference in its entirety. Preparation of the tetramethylrhodamine (TAMRA)-labeled dexamethasone probe was accomplished using a standard literature procedure (M. Pons et al., J. Steroid Biochem., 1985, 22, pp. 267-273).
The affinity of the probe for the steroid receptor was then determined in a titration experiment. The fluorescence polarization value of the probe in assay buffer was measured on an SLM-8100 fluorometer using the excitation and emission maximum values described above. Aliquots of expression vector lysate were added and fluorescence polarization was measured after each addition until no further change in polarization value was observed. Non-linear least squares regression analysis was used to calculate the dissociation constant of the probe from the polarization values obtained for lysate binding to the probe.
This assay uses fluorescence polarization (FP) to quantitate the ability of test compounds to compete with tetramethylrhodamine (TAMRA)-labeled dexamethasone for binding to a human glucocorticoid receptor (GR) complex prepared from an insect expression system. The assay buffer was: 10 mM TES, 50 mM KCl, 20 mM Na2MoO4.2H2O, 1.5 mM EDTA, 0.04% w/v CHAPS, 10% v/v glycerol, 1 mM dithiothreitol, pH 7.4. Test compounds were dissolved to 1 mM in neat DMSO and then further diluted to 10× assay concentration in assay buffer supplemented with 10% v/v DMSO. Test compounds were serially diluted at 10× assay concentrations in 10% DMSO-containing buffer in 96-well polypropylene plates. Binding reaction mixtures were prepared in 96-well black Dynex microtiter plates by sequential addition of the following assay components to each well: 15 μL of 10× test compound solution, 85 μL of GR-containing baculovirus lysate diluted 1:170 in assay buffer, and 50 μL of 15 nM TAMRA-labeled dexamethasone. Positive controls were reaction mixtures containing no test compound; negative controls (blanks) were reaction mixtures containing 0.7 μM to 2 μM dexamethasone. The binding reactions were incubated for 1 hour at room temperature and then read for fluorescence polarization in the LJL Analyst set to 550 nm excitation and 580 nm emission, with the Rhodamine 561 dichroic mirror installed. IC50 values were determined by iterative non-linear curve fitting of the FP signal data to a 4-parameter logistic equation.
For orientation: Fluorescence polarisation rises when a labelled molecule tumbles more slowly, as on binding a larger partner.

For orientation: IC50 means the concentration that inhibits the measured activity by half. As for `Cc1cc(C)c(S(=O)(=O)NC(CSc2ccccc2OC(F)(F)F)C(F)(F)F)c(C)c1` (stereo not drawn), the IC50 was at most 100 nM. To `Cc1cc(C)c(S(=O)(=O)NC(COc2ccc(Cl)cc2)C(F)(F)F)c(C)c1` (stereo not drawn) belongs at most 100 nM; to `CCCN(CC(NS(=O)(=O)c1c(C)cc(C)cc1C)C(F)(F)F)c1ccccc1` (stereo not drawn), at most 100 nM. To `Cc1cc(C)c(S(=O)(=O)NC(CNc2ccc(Cl)cc2)C(F)(F)F)c(C)c1` (stereo not drawn) belongs at most 100 nM; to `CCC(CSc1ccccc1)NS(=O)(=O)c1c(C)cc(C)cc1C` (stereo not drawn) [2,4,6-Trimethyl-N-(1-phenylsulfanylmethylpropyl)benzenesulfonamide], at most 100 nM; to `Cc1cccc(OCC(NS(=O)(=O)c2c(C)cc(C)cc2C)C(F)(F)F)c1` (stereo not drawn) [2,4,6-Trimethyl-N-(2,2,2-trifluoro-1-m-tolyloxymethylethyl)benzenesulfonamide], at most 100 nM.

With `Cc1cc(C)c(S(=O)(=O)NC(COc2ccccc2C)C(F)(F)F)c(C)c1` (stereo not drawn) [2,4,6-Trimethyl-N-(2,2,2-trifluoro-1-o-tolyloxymethylethyl)benzenesulfonamide], the IC50 is at most 100 nM. To `Cc1ccc(OCC(NS(=O)(=O)c2c(C)cc(C)cc2C)C(F)(F)F)cc1` (stereo not drawn) [2,4,6-Trimethyl-N-(2,2,2-trifluoro-1-p-tolyloxymethylethyl)benzenesulfonamide] belongs at most 100 nM.

Consider `Cc1cc(C)c(S(=O)(=O)NC(CNc2ccccc2)C(F)(F)F)c(C)c1` (stereo not drawn) [2,4,6-Trimethyl-N-(2,2,2-trifluoro-1-phenylaminomethylethyl)benzenesulfonamide], for which the IC50 was at most 100 nM. As to `Cc1cc(C)c(S(=O)(=O)NC(CSc2ccccc2)C(F)(F)F)c(C)c1` (stereo not drawn) [2,4,6-Trimethyl-N-(2,2,2-trifluoro-1-phenylsulfanylmethylethyl)benzenesulfonamide], the IC50 was at most 100 nM.

As for `Cc1cc(C)c(S(=O)(=O)NC(CN(C)c2ccccc2OC(F)(F)F)C(F)(F)F)c(C)c1` (stereo not drawn) [2,4,6-Trimethyl-N-(2,2,2-trifluoro-1-{[methyl-(2-trifluoromethoxyphenyl)amino]methyl}-ethyl)benzenesulfonamide], the IC50 was at most 100 nM.

Consider `Cc1cc(C)c(S(=O)(=O)NC(COc2cccc3c2CCC3=O)C(F)(F)F)c(C)c1` (stereo not drawn) [2,4,6-Trimethyl-N-[2,2,2-trifluoro-1-(1-oxoindan-4-yloxymethyl)ethyl]benzenesulfonamide], for which the IC50 is at most 100 nM. Turning to `Cc1cc(C)c(S(=O)(=O)NC(COc2ccc(F)c(F)c2F)C(F)(F)F)c(C)c1` (stereo not drawn) [2,4,6-Trimethyl-N-[2,2,2-trifluoro-1-(2,3,4-trifluorophenoxymethyl)ethyl]benzenesulfonamide], the IC50 is at most 100 nM. To `Cc1cc(C)c(S(=O)(=O)NC(COc2cc(F)c(F)cc2F)C(F)(F)F)c(C)c1` (stereo not drawn) [2,4,6-Trimethyl-N-[2,2,2-trifluoro-1-(2,4,5-trifluorophenoxymethyl)ethyl]benzenesulfonamide] belongs at most 100 nM. To `Cc1cc(C)c(S(=O)(=O)NC(CSc2ccccc2C(C)C)C(F)(F)F)c(C)c1` (stereo not drawn) [2,4,6-Trimethyl-N-[2,2,2-trifluoro-1-(2-isopropylphenylsulfanylmethyl)ethyl]benzenesulfonamide] belongs at most 100 nM; to `COc1ccccc1SCC(NS(=O)(=O)c1c(C)cc(C)cc1C)C(F)(F)F` (stereo not drawn) [2,4,6-Trimethyl-N-[2,2,2-trifluoro-1-(2-methoxyphenylsulfanylmethyl)ethyl]benzenesulfonamide], at most 100 nM; to `Cc1cc(C)c(S(=O)(=O)NC(COc2ccccc2C(F)(F)F)C(F)(F)F)c(C)c1` (stereo not drawn) [2,4,6-Trimethyl-N-[2,2,2-trifluoro-1-(2-trifluoromethylphenoxymethyl)ethyl]benzenesulfonamide], at most 100 nM. To `Cc1cc(C)c(S(=O)(=O)NC(COc2cc(F)cc(C(F)(F)F)c2)C(F)(F)F)c(C)c1` (stereo not drawn) [2,4,6-Trimethyl-N-[2,2,2-trifluoro-1-(3-fluoro-5-trifluoromethylphenoxymethyl)ethyl]benzenesulfonamide] belongs at most 100 nM. Take `Cc1cc(C)c(S(=O)(=O)NC(COc2cccc(F)c2)C(F)(F)F)c(C)c1` (stereo not drawn) [2,4,6-Trimethyl-N-[2,2,2-trifluoro-1-(3-fluorophenoxymethyl)ethyl]benzenesulfonamide]: the IC50 was at most 100 nM. In the case of `COc1cccc(SCC(NS(=O)(=O)c2c(C)cc(C)cc2C)C(F)(F)F)c1` (stereo not drawn) [2,4,6-Trimethyl-N-[2,2,2-trifluoro-1-(3-methoxyphenylsulfanylmethyl)ethyl]benzenesulfonamide], the IC50 is at most 100 nM. To `Cc1cc(C)c(S(=O)(=O)NC(COc2cccc(OC(F)(F)F)c2)C(F)(F)F)c(C)c1` (stereo not drawn) [2,4,6-Trimethyl-N-[2,2,2-trifluoro-1-(3-trifluoromethoxyphenoxymethyl)ethyl]benzenesulfonamide] belongs at most 100 nM. On to `Cc1cc(C)c(S(=O)(=O)NC(CSc2cccc(OC(F)(F)F)c2)C(F)(F)F)c(C)c1` (stereo not drawn) [2,4,6-Trimethyl-N-[2,2,2-trifluoro-1-(3-trifluoromethoxyphenylsulfanylmethyl)ethyl]benzenesulfonamide], for which the IC50 was at most 100 nM. To `Cc1cc(C)c(S(=O)(=O)NC(COc2cccc(C(F)(F)F)c2)C(F)(F)F)c(C)c1` (stereo not drawn) [2,4,6-Trimethyl-N-[2,2,2-trifluoro-1-(3-trifluoromethylphenoxymethyl)ethyl]benzenesulfonamide] belongs at most 100 nM; to `Cc1cc(C)c(S(=O)(=O)NC(CSc2cccc(C(F)(F)F)c2)C(F)(F)F)c(C)c1` (stereo not drawn) [2,4,6-Trimethyl-N-[2,2,2-trifluoro-1-(3-trifluoromethylphenylsulfanylmethyl)ethyl]benzenesulfonamide], at most 100 nM. To `Cc1cc(C)c(S(=O)(=O)NC(COc2ccc(F)cc2C)C(F)(F)F)c(C)c1` (stereo not drawn) [2,4,6-Trimethyl-N-[2,2,2-trifluoro-1-(4-fluoro-2-methylphenoxymethyl)ethyl]benzenesulfonamide] belongs at most 100 nM. To `Cc1cc(C)c(S(=O)(=O)NC(CSc2ccc(F)cc2)C(F)(F)F)c(C)c1` (stereo not drawn) [2,4,6-Trimethyl-N-[2,2,2-trifluoro-1-(4-fluorophenylsulfanylmethyl)ethyl]benzenesulfonamide] belongs at most 100 nM; to `Cc1cc(C)c(S(=O)(=O)NC(CSc2ccc(C(C)C)cc2)C(F)(F)F)c(C)c1` (stereo not drawn) [2,4,6-Trimethyl-N-[2,2,2-trifluoro-1-(4-isopropylphenylsulfanylmethyl)ethyl]benzenesulfonamide], at most 100 nM. As for `Cc1cc(C)c(S(=O)(=O)NC(COc2ccc(C(F)(F)F)cc2)C(F)(F)F)c(C)c1` (stereo not drawn) [2,4,6-Trimethyl-N-[2,2,2-trifluoro-1-(4-trifluoromethylphenoxymethyl)ethyl]benzenesulfonamide], the IC50 was at most 100 nM. To `Cc1cc(C)c(S(=O)(=O)NC(COc2cccc3c2CCCC3)C(F)(F)F)c(C)c1` (stereo not drawn) [2,4,6-Trimethyl-N-[2,2,2-trifluoro-1-(5,6,7,8-tetrahydronaphthalen-1-yloxymethyl)ethyl]benzenesulfonamide] belongs at most 100 nM.

Regarding `Cc1cc(C)c(S(=O)(=O)NC(COc2cccc3c2CCCC3=O)C(F)(F)F)c(C)c1` (stereo not drawn) [2,4,6-Trimethyl-N-[2,2,2-trifluoro-1-(5-oxo-5,6,7,8-tetrahydronaphthalen-1-yloxymethyl)ethyl]benzenesulfonamide], the IC50 was at most 100 nM.
